Data on twelve molecules can be found in US7189750B2, “Thiazole-based nitric oxide donors having at least two thiazole moieties and uses thereof” (priority 2004, dated 2007).

Each structure is given as a SMILES string.

Common to all, as to assay type: cell-based
Test [1] deals with isolated rat aorta. In words: In vitro induction of tolerance and cross-tolerance: vasorelaxation of pre-exposed rat aortic rings. To be noted: for EC50: Rattus norvegicus; for tolerance induction in vitro: rings pre-treated with epinephrine and then with the same compound (0.44 mM). Here is the method: Aortic rings were prepared as described hereinabove, and were exposed to 0.44 mM GTN (vehicle was water:ethanol:propyleneglycol at proportional ratio of 1:1:1) for 1 hour before CCRC construction, to thereby induce tolerance to nitroglycerine. At the end of the tolerance induction period, rings were thrice washed with the path buffer (Krebs-bicrbonate) every 15 minutes for the following hour and then CCRC for vasorelaxation on GTN-induced tolerance rings were constructed for GTN (pretreated versus untreated rings, FIG. 15), in order to verify the ability to induce and measure GTN tolerance induction in vitro
Attempted induction of tolerance to the NO-donating compounds of the present invention was performed under the same conditions as for GTN. Thus, in an exemplary experiment, rings were exposed to 0.44 mM solution of Pet-3 in the attempt to induce tolerance for Pet-3. CCRC were then measured for the vasorelaxing effect of Pet-3 on a group of rings which were pre-exposed to Pet-3 as to induce tolerance to Pet-3, and for an untreated control group. The above protocol was repeated with Pet-2, Pet-7, Pet-8, Pet-12, Pet-24, Pet-43, Pet-149 and Pet-152.
Cross-tolerance studies were conducted using the same technique described above for measuring vasorelaxation of aortic rings from rats. Two groups of aortic rings samples were pre-treated with GTN, then one group was measured for vasorelaxation by GTN and the second group for vasorelaxation by Pet-12, an exemplary NO-donor according to the present invention. For the opposite cross-tolerance studies, two groups of aortic rings samples were pre-treated with Pet-12, then one group was measured for vasorelaxation by GTN and the second group for vasorelaxation by Pet-12.

Test [2] has as its system isolated rat aorta. In words: In vitro vasorelaxation of epinephrine-contracted rat aortic rings (CCRC). Particulars: for vasorelaxation effect as compared with glyceryltrinitrate: isolated rat aorta, 1 μM epinephrine. The source says:
Male Sprague Dawley rats were anaesthetized using intraperitoneal injection of ketamine and xylazine (50 and 10 milligram per kilogram, respectively) and the thoracic aorta, the large upper portion of the descending aorta, starting at the caudal border of the chest bone, was removed thereafter, while carefully removing the paraadventetial tissue surrounding the vessel. Aortae were cut into rings of 4–5 millimeters and mounted onto the tissue path. The path buffer (Krebs-bicrbonate) was constantly gassed with carbogen and maintained at 37° C. The rings were preloaded under 2 g tension and equilibrated for 90 minutes, while refreshing the buffer every 15 minutes. After stabilization, the rings were contracted with epinephrine (1 μM). Cumulative Concentration-Response Curves (CCRC) were measured for the vasorelaxing effect induced by adding various concentrations, ranging from 10^−10 M to 10^−5 M of Pet-2, Pet-3, Pet-7, Pet-8, Pet-12, Pet-24, Pet-43, Pet-59, Pet-147, Pet-152 and Pet-154, and glyceryltrinitrate (GTN), according to the procedure described in Feelich et al., Molecular Pharmacology, 56:243–253 (1999). The vehicle, which was used for this experiment was water:ethanol:propyleneglycol at proportional ratio of 1:1:1.
The vasorelaxing effect of the thiazole-derived NO-donors according to the present invention was measured on slices of thoracic aorta of rats contracted with epinephrine, as described hereinabove.

In test [3] the test system is c-GMP in slices of thoracic aorta of rats. The test can be described thus: Cyclic-GMP measurement in aortic rat tissue (radioimmunoassay). To be noted: for levels of cGMP as compared with GTN: isolated rat aorta; for cGMP Post-infusion / cGMP Pre-infusion: rat aorta; for cGMP Post-infusion: post-infusion (repeated treatment). As to the method:
GTN (10^−6 M) was added to the chamber and, 1 minute after exposure to the drug, rings (usually 3–5) were taken, wrapped with aluminum foil and immediately frozen in liquid nitrogen for storage. Control sample group was treated with the vehicle solution only. At the time of analysis, rings were thawed, blotted over a dry gauzed and weighted. A known weight of tissue was homogenized in 2 ml ice-cold modified Hank's balanced salt solution containing (in gram/liter) NaCl 8; KCl 0.4; glucose 1; KH2PO4 0.06; Na2HPO4 0.047; Phenol red 0.017 and further containing 25 mM EDTA (disodium salt). The homogenate was centrifuged at 4000 g (force units) for 10 minutes at 2–4° C. and the supernatant was thereafter transferred into fresh pre-cooled test tube containing 1 ml of acetonitrile. The tubes were vortex mixed for a few seconds and subsequently centrifuged at 4000 g for 5 minutes at 2–4° C., to remove the precipitated protein. Each supernatant was transferred into a clean test tube and evaporated to dryness under a stream of nitrogen at 55° C. The dry residue was reconstituted with 10 volumes of Tris-EDTA buffer pH 7.5 (0.05 M Tris containing 4 mM EDTA). Aliquots of 100 μl of the reconstituted solution in duplicate were used for c-GMP measurements using Amersham RIA kit, as is described in Haj-Yehia & Benet [Pharmacology, 1995, 273, 1, pp. 94–100]. Standard curves were plotted with six concentrations (0, 0.5, 1, 2, 4 and 8 pmoles of c-GMP per tube).
The NO-tolerance effect of GTN and NO-donor compounds according to the present invention was measured by following the production of c-GMP in slices of thoracic aorta of rats. Thus, the production of c-GMP was measured as described in the methods section above for the reference NO-donor compound GTN, and for the NO-donors of the present invention Pet-2, Pet-3, Pet-7, Pet-8, Pet-10, Pet-12, Pet-24, Pet-59, Pet-147, Pet-149, Pet-152, Pet-154 and Pet-155.

The mark [4] stands for this setting: vasorelaxation of rings pre-exposed to 0.44 mM of the same compound for 1 hour, given as negative log value, read-out: EC50 (converted).
The mark [5] stands for this setting: vasorelaxation of rings pre-exposed to 0.44 mM of the same compound for 1 hour, read-out: Concentration.
The mark [6] stands for this setting: vasorelaxation, rat aortic rings contracted with 1 μM epinephrine, 10^−10 M to 10^−5 M, read-out: Concentration.
The mark [7] stands for this setting: vasorelaxation, rat aortic rings contracted with 1 μM epinephrine, given as negative log value, read-out: EC50 (converted).
The mark [8] stands for this setting: Rattus norvegicus, read-out: Concentration.

As to `Cc1nc(NC(=O)[C@@H](C)c2ccc(CC(C)C)cc2)sc1CCO[N+](=O)[O-]` (stereo in doubt) [Pet-152, 2-(4-Isobutyl-phenyl)-N-[4-methyl-5-(2-nitrooxy-ethyl)-thiazol-2-yl]-propionamide], the EC50 in the test with isolated rat aorta [1] (setting [4]), in the test with isolated rat aorta [1] (setting [5]), in the test on isolated rat aorta [2] (setting [6]) and with isolated rat aorta [2] (setting [7]) was 50.1 nM each time. In addition, in the test on isolated rat aorta [2], the “vasorelaxation effect as compared with glyceryltrinitrate” value is reported as “superior”. Further, the “levels of cGMP as compared with GTN” value in test [3] is recorded as “increased”.

For the molecule `Cc1nc(C)c(CCO[N+](=O)[O-])s1` [Pet-3, 2,4-Dimethyl-5-(2-nitrooxy-ethyl)-thiazole], the EC50 in the test on isolated rat aorta [1] (1 h) is 50.1 nM; with isolated rat aorta [1] (1 h, read-out: Concentration), 50.1 nM; in the test with isolated rat aorta [2] (Rattus norvegicus), 35.5 nM; in the test on isolated rat aorta [2] (setting [8]), 35.5 nM. Moreover, the “tolerance induction in vitro” value in the test on isolated rat aorta [1] was “absence of tolerance induction”. For the same molecule, the “vasorelaxation effect as compared with glyceryltrinitrate” value in the test with isolated rat aorta [2] is reported as “superior”. Further, in test [3], the “levels of cGMP as compared with GTN” value is listed as “increased”. Moreover, the “cGMP Post-infusion” value in test [3] is listed as 118 ± 10 pmol/g tissue. Also, in test [3], the “cGMP Pre-infusion” value is 122 ± 14 pmol/g tissue.

Turning to `Cc1nc(N(C)C)sc1CCO[N+](=O)[O-]` [Pet-7, Dimethyl-[4-methyl-5-(2-nitrooxy-ethyl)-thiazol-2-yl]-amine], the EC50 is 35.5 nM in the test with isolated rat aorta [1] (setting [4]), 50.1 nM in the test on isolated rat aorta [1] (setting [5]), 28.2 nM with isolated rat aorta [2] (setting [6]) and 28.2 nM in the test with isolated rat aorta [2] (setting [7]). Moreover, the “tolerance induction in vitro” value in the test with isolated rat aorta [1] was “absence of tolerance induction”. Besides, in the test on isolated rat aorta [2], the “vasorelaxation effect as compared with glyceryltrinitrate” value was 10 fold. Further, the “levels of cGMP as compared with GTN” value in test [3] is on record as “increased”. The “cGMP Post-infusion” value in test [3] came to 123 ± 12 pmol/g tissue. Also, in test [3], the “cGMP Pre-infusion” value is on record as 120 ± 12 pmol/g tissue.

On to `Cc1nc(-c2ccccc2)sc1CCO[N+](=O)[O-]` [Pet-8, 4-Methyl-5-(2-nitrooxy-ethyl)-2-phenyl-thiazole], for which the EC50 is 25.1 nM with isolated rat aorta [1] (setting [4]), 25.1 nM in the test on isolated rat aorta [1] (setting [5]), 28.2 nM with isolated rat aorta [2] (setting [6]) and 20 nM in the test on isolated rat aorta [2] (setting [7]). For the same molecule, the “vasorelaxation effect as compared with glyceryltrinitrate” value with isolated rat aorta [2] is listed as “superior”. The “levels of cGMP as compared with GTN” value in test [3] is “increased”. The “cGMP Post-infusion” value in test [3] is 136 ± 12 pmol/g tissue. Also, the “cGMP Pre-infusion” value in test [3] amounted to 133 ± 10 pmol/g tissue.

`Cc1nc(N)sc1CCO[N+](=O)[O-]` [Pet-10, 4-methyl-5-(2-nitrooxy-ethyl)-thiazole-2-ylamine]: the “levels of cGMP as compared with GTN” value in test [3] was “increased”.

For the molecule `CNc1cncc(-c2nc(C)c(CCO[N+](=O)[O-])s2)n1` [Pet-24, Methyl-{6-[4-methyl-5-(2-nitrooxy-ethyl)-thiazol-2-yl]-pyrazin-2-yl}-amine], the EC50 is 251 nM with isolated rat aorta [1] (setting [4]), 251 nM with isolated rat aorta [1] (setting [5]), 200 nM in the test with isolated rat aorta [2] (setting [6]) and 200 nM with isolated rat aorta [2] (setting [7]). Further, the “tolerance induction in vitro” value in the test on isolated rat aorta [1] was “absence of tolerance induction”. In test [3], the “levels of cGMP as compared with GTN” value is “increased”. Besides, the “cGMP Post-infusion” value in test [3] was 112 ± 10 pmol/g tissue. Besides, the “cGMP Pre-infusion” value in test [3] stood at 115 ± 14 pmol/g tissue.

`Cc1nc(Nc2nc(C)c(CCO[N+](=O)[O-])s2)sc1CCO[N+](=O)[O-]` [Pet-43, Bis-[4-methyl-5-(2-nitrooxy-ethyl)-thiazol-2-yl]-amine]: the EC50 was 251 nM in the test with isolated rat aorta [1] (1 h); 251 nM in the test with isolated rat aorta [1] (1 h, read-out: Concentration); 158 nM in the test on isolated rat aorta [2] (Rattus norvegicus); 159 nM in the test with isolated rat aorta [2] (setting [8]). Moreover, the “tolerance induction in vitro” value in the test on isolated rat aorta [1] is reported as “absence of tolerance induction”. Further, the “vasorelaxation effect as compared with glyceryltrinitrate” value in the test on isolated rat aorta [2] is recorded as “superior”.

Turning to `Cc1nc(-c2ccc(C(F)(F)F)cc2)sc1CCO[N+](=O)[O-]` [Pet-59, 4-Methyl-5-(2-nitrooxy-ethyl)-2-(4-trifluoromethyl-phenyl)-thiazole], the “vasorelaxation effect as compared with glyceryltrinitrate” value in the test on isolated rat aorta [2] is recorded as “superior”. Moreover, the EC50 with isolated rat aorta [2] (setting [6]) and in the test with isolated rat aorta [2] (setting [7]) was 79.4 nM in each case. The “levels of cGMP as compared with GTN” value in test [3] is “increased”.

Take `CCNc1nc(C)c(CCO[N+](=O)[O-])s1` [Pet-147, Ethyl-[4-methyl-5-(2-nitrooxy-ethyl)-thiazol-2-yl]-amine]: the EC50 with isolated rat aorta [2] (setting [6]) and in the test on isolated rat aorta [2] (setting [7]) was 31.6 nM each time. Further, the “levels of cGMP as compared with GTN” value in test [3] is reported as “increased”.

For `Cc1nc(Nc2cccc3ccccc23)sc1CCO[N+](=O)[O-]` [Pet-149, [4-Methyl-5-(2-nitrooxy-ethyl)-thiazol-2-yl]-naphthalen-1-yl-amine], the EC50 in the test with isolated rat aorta [1] (setting [4]) is 39.8 nM. In addition, the EC50 in the test with isolated rat aorta [1] (setting [5]) is 43.3 nM. Moreover, the “tolerance induction in vitro” value in the test on isolated rat aorta [1] was “absence of tolerance induction”. For the same molecule, the “vasorelaxation effect as compared with glyceryltrinitrate” value in the test on isolated rat aorta [2] is on record as “superior”. For the same molecule, in test [3], the “levels of cGMP as compared with GTN” value is given as “increased”, the “cGMP Post-infusion” value was found to be 115 ± 14 pmol/g tissue and the “cGMP Pre-infusion” value came to 112 ± 12 pmol/g tissue.

Consider `Cc1nc(NC(=O)c2cccnc2)sc1CCO[N+](=O)[O-]` [Pet-154, N-[4-methyl-5-(2-nitrooxy-ethyl)-thiazol-2-yl]-nicotinamide], for which the EC50 with isolated rat aorta [1] (setting [4]), in the test on isolated rat aorta [1] (setting [5]), in the test on isolated rat aorta [2] (setting [6]) and in the test on isolated rat aorta [2] (setting [7]) was 39.8 nM each time. In addition, the “levels of cGMP as compared with GTN” value in test [3] is reported as “increased”.

As to `C=CCNc1nc(C)c(CCO[N+](=O)[O-])s1` [Pet-155, allyl-[4-methyl-5-(2-nitrooxy-ethyl)-thiazol-2-yl]-amine], the EC50 in the test with isolated rat aorta [1] (setting [4]) and in the test with isolated rat aorta [1] (setting [5]) was 50.1 nM in each case. The “vasorelaxation effect as compared with glyceryltrinitrate” value in the test on isolated rat aorta [2] was “superior”. The “levels of cGMP as compared with GTN” value in test [3] was “increased”.
